These are literature values, as cited in patent US20080286377A1 (priority 2001, published 2008).

Series [1] relates to alveolar bone resorption.
The subject of series [2] is osteolysis associated with wear debris. The settings on record: systemic administration.
For series [3] the following is noted: activity assays.
For series [4], the system named is bone resorption. The settings on record: mild to moderate Paget's disease; administration for 10 days (intravenous) to 6 months (oral); SAP activity and UHP excretion as indicators.

With `NCCCC(O)(P(=O)(O)O)P(=O)(O)O` [alendronate], the “prevention of resorption, 10-second contact” value in series [1] (10-second contact of soaked pellet to alveolar bone) is listed as “ineffective in preventing resorption”. Also, in series [1] (drug-soaked pellet against alveolar bone for 2 hours, monitored 21 days later), the “bone resorption after local administration” value is reported as “significantly reduced bone resorption”. Also, the “prevention of resorption, systemic administration” value in series [1] (systemic administration) is recorded as “effective”. In addition, the “osteolysis associated with wear debris” value in series [2] is on record as “inhibited osteolysis”.

For the molecule `N.N.[Cl][Pt][Cl]` [cisplatin], in series [3], the “effect of PMMA polymerization process on drug potency” value (“effect of PMMA polymerization process” for short) is reported as “did not adversely impact or alter the therapeutic potential”.

`CN(Cc1cnc2nc(N)nc(N)c2n1)c1ccc(C(=O)N[C@@H](CCC(=O)O)C(=O)O)cc1` [methotrexate]: in series [3], the “effect of PMMA polymerization process” value was “did not adversely impact or alter the therapeutic potential”.

`NCCC(O)(P(=O)(O)O)P(=O)(O)O` [pamidronate disodium]: the “biochemical remission of bone resorption, mean duration” value in series [4] is on record as 2.7 years.

With Gentamicin, the “effect of PMMA polymerization process” value in series [3] was “did not adversely impact or alter the therapeutic potential”.
